Results as given in patent publication US8461328B2, “Tricyclic heterocyclic compounds, compositions and methods of use thereof” (Genentech, Inc., priority 2010, dated 2013).

How the values were obtained:
Type in all cases: biochemical
TYK2 = target: T1, TYK2 (Homo sapiens, UniProt P29597); assay: TYK2 inhibition (Table 4)
T1 construct: made in house; host or cells: SF9 insect cells (baculovirus)
T1 sequence (P29597 873-1187): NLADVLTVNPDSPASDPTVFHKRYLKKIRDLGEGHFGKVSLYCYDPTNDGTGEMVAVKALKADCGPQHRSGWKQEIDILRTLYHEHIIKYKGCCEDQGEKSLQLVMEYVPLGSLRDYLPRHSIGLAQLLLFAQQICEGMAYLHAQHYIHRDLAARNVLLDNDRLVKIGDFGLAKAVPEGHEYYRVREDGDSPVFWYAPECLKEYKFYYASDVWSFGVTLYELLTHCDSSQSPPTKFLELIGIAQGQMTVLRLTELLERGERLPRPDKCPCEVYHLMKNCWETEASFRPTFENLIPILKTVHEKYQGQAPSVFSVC

JAK2 = target: T2, JAK2 (Homo sapiens, UniProt O60674); assay: JAK2 inhibition (Table 4); conditions: read-out: JAK2 Ki
T2 construct: made in house; host or cells: SF9 insect cells (baculovirus)
T2 sequence (O60674 812-1132): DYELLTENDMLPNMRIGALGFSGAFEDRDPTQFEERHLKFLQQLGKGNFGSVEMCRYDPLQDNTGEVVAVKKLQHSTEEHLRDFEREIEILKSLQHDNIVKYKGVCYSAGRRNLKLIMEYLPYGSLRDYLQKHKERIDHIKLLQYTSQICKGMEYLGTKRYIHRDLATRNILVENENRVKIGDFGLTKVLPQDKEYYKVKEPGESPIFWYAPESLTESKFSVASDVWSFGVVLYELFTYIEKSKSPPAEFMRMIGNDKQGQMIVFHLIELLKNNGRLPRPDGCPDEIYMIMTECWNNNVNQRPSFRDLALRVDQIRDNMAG

JAK3 = target: T3, JAK3 (Homo sapiens, UniProt P52333); assay: JAK3 inhibition (Table 4); conditions: read-out: JAK3 Ki
T3 construct: made in house; host or cells: SF9 insect cells (baculovirus)
T3 sequence (P52333 783-1124): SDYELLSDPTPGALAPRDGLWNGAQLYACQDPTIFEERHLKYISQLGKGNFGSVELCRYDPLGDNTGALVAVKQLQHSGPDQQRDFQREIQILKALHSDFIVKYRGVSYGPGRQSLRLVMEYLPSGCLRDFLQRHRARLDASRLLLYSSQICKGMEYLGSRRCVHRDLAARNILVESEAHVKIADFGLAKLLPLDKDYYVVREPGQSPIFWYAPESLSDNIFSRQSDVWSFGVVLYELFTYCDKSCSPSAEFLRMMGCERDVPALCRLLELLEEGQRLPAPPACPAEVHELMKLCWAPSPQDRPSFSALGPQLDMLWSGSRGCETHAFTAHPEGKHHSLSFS

CC1(n2cnc3cnc4[nH]ccc4c32)CCNCC1 [Example 318, 1-(4-Methyl-piperidin-4-yl)-1,6-dihydro-1,3,5,6-tetraaza-as-indacene]
Ki (TYK2): 1900 nM | Ki (JAK2): 1100 nM | Ki (JAK3): 976 nM

CS(=O)(=O)NCc1nc2cnc3[nH]ccc3c2n1[C@@H]1CCCOC1 [Example 866, (R)—N-[1-(Tetrahydro-pyran-3-yl)-1,6-dihydro-1,3,5,6-tetraaza-as-indacen-2-ylmethyl]-methanesulfonamide]
Ki (TYK2): 1060 nM | Ki (JAK2): 604 nM | Ki (JAK3): 1110 nM

CS(=O)(=O)N[C@H]1CC[C@@H](n2cnc3cnc4[nH]ccc4c32)CC1 [Example 321, N-[4-(6H-1,3,5,6-Tetraaza-as-indacen-1-yl)-cyclohexyl]-methanesulfonamide]
Ki (TYK2): 38.5 nM | Ki (JAK2): 9.47 nM | Ki (JAK3): 56.1 nM

Cc1nc2cnc3[nH]ccc3c2n1[C@H]1CC[C@@H](C(C)(C)O)CC1 [Example 958, Cis-2-[4-(2-Methyl-6H-1,3,5,6-tetraaza-as-indacen-1-yl)-cyclohexyl]-propan-2-ol]
Ki (TYK2): 14.3 nM | Ki (JAK2): 5.13 nM | Ki (JAK3): 36.8 nM

O=C(CC(F)(F)F)NC1CCC(n2nnc3cnc4[nH]ccc4c32)C1 (racemic) [Example 619, Racemic trans 3,3,3-trifluoro-N-[3-(6H-1,2,3,5,6-pentaaza-as-indacen-1-yl)-cyclopentyl]-propionamide]
Ki (TYK2): 118 nM | Ki (JAK2): 14.6 nM | Ki (JAK3): 31.1 nM

c1cc2c(ncc3ncn([C@H]4CC[C@H](NCC5CC5)CC4)c32)[nH]1 [Example 574, trans Cyclopropylmethyl-[4-(6H-1,3,5,6-tetraaza-as-indacen-1-yl)-cyclohexyl]-amine]
Ki (TYK2): 125 nM | Ki (JAK2): 54.6 nM | Ki (JAK3): 232 nM

COC(=O)NC1CCC(n2cnc3cnc4[nH]ccc4c32)C1 (racemic) [Example 734, [3-(6H-1,3,5,6-Tetraaza-as-indacen-1-yl)-cyclopentyl]-carbamic acid methyl ester]
Ki (TYK2): 28.5 nM | Ki (JAK2): 8.06 nM | Ki (JAK3): 54.3 nM

CC1(n2cnc3cnc4[nH]ccc4c32)CCN(Cc2cncnc2)CC1 [Example 322, 1-(4-Methyl-1-pyrimidin-5-ylmethyl-piperidin-4-yl)-1,6-dihydro-1,3,5,6-tetraaza-as-indacene]
Ki (TYK2): 426 nM | Ki (JAK2): 25.5 nM | Ki (JAK3): 84.8 nM

CS(=O)(=O)NCc1nc2cnc3[nH]ccc3c2n1C1CCNCC1 [Example 206, N-(1-Piperidin-4-yl-1,6-dihydro-1,2,3,5,6-tetraaza-as-indacen-2-ylmethyl)-methanesulfonamide]
Ki (TYK2): 565 nM | Ki (JAK2): 812 nM | Ki (JAK3): 3050 nM

c1cc2c(ncc3ncn([C@H]4CC[C@H](N5CCOCC5)CC4)c32)[nH]1 [Example 594, Trans 1-(4-Morpholin-4-yl-cyclohexyl)-1,6-dihydro-1,2,3,5,6-tetraaza-as-indacene]
Ki (TYK2): 76.6 nM | Ki (JAK2): 22.7 nM | Ki (JAK3): 334 nM

Cc1nc2cnc3[nH]ccc3c2n1[C@H]1CC[C@H](C(C)(C)O)CC1 [Example 632, 2-[4-(2-Methyl-6H-1,2,3,5,6-tetraaza-as-indacen-1-yl)-cyclohexyl]-propan-2-ol]
Ki (TYK2): 13.7 nM | Ki (JAK2): 3.5 nM | Ki (JAK3): 36.8 nM

N[C@H]1CC[C@@H](n2cnc3cnc4[nH]ccc4c32)CC1 [Example 289, 4-(6H-1,3,5,6-Tetraaza-as-indacen-1-yl)-cyclohexylamine]
Ki (TYK2): 107 nM | Ki (JAK2): 80.2 nM | Ki (JAK3): 79.5 nM

CC(C)(C)OC(=O)NC1CCC(n2cnc3cnc4[nH]ccc4c32)C1 (racemic) [Example 137, Racemic trans [3-(6H-1,2,3,5,6-Tetraaza-as-indacen-1-yl)-cyclopentyl]-carbamic acid tert-butyl ester]
Ki (TYK2): 120 nM | Ki (JAK2): 9.51 nM | Ki (JAK3): 37.1 nM

N#CCCN1CCC(n2cnc3cnc4[nH]ccc4c32)CC1 [Example 58, 3-[4-(6H-1,3,5,6-Tetraaza-as-indacen-1-yl)-piperidin-1-yl]propionitrile]
Ki (TYK2): 3.57 nM | Ki (JAK2): 1 nM | Ki (JAK3): 16.4 nM

CC1(n2cnc3cnc4[nH]ccc4c32)CCN(CCC#N)CC1 [Example 330, 3-[4-Methyl-4-(6H-1,3,5,6-tetraaza-as-indacen-1-yl)-piperidin-1-yl]-propionitrile]
Ki (TYK2): 271 nM | Ki (JAK2): 122 nM | Ki (JAK3): 269 nM

CCS(=O)(=O)NCCc1nc2cnc3[nH]ccc3c2n1C1CCCCC1 [Example 512, Ethanesulfonic acid [2-(1-cyclohexyl-1,6-dihydro-1,3,5,6-tetraaza-as-indacen-2-yl)-ethyl]-amide]
Ki (TYK2): 22 nM | Ki (JAK2): 28.3 nM | Ki (JAK3): 61.7 nM

N[C@H]1CC[C@H](n2cnc3cnc4[nH]ccc4c32)CC1 [Example 108, Trans 4-(6H-1,3,5,6-tetraaza-as-indacen-1-yl)-cyclohexylamine]
Ki (TYK2): 75.2 nM | Ki (JAK2): 24.6 nM | Ki (JAK3): 35 nM

COC(=O)N(C)[C@H]1CC[C@H](n2cnc3cnc4[nH]ccc4c32)CC1 [Example 143, Trans Methyl-[4-(6H-1,2,3,5,6-tetraaza-as-indacen-1-yl)-cyclohexyl]-carbamic acid methyl ester]
Ki (TYK2): 51.2 nM | Ki (JAK2): 7.03 nM | Ki (JAK3): 182 nM

CS(=O)(=O)NCc1nc2cnc3[nH]ccc3c2n1C1CCN(Cc2ccccc2)CC1 [Example 202, N-[1-(1-Benzyl-piperidin-4-yl)-1,6-dihydro-1,2,3,5,6-tetraaza-as-indacen-2-ylmethyl]-methanesulfonamide]
Ki (TYK2): 831 nM | Ki (JAK2): 44.6 nM | Ki (JAK3): 60.3 nM

N#Cc1cccc(CN[C@H]2CC[C@H](n3cnc4cnc5[nH]ccc5c43)CC2)c1 [Example 219, 3-{[4-(6H-1,3,5,6-Tetraaza-as-indacen-1-yl)-cyclohexylamino]-methyl}-benzonitrile]
Ki (TYK2): 37.3 nM | Ki (JAK2): 11.2 nM | Ki (JAK3): 89 nM

CC(C)C(=O)N[C@H]1CC[C@H](n2cnc3cnc4[nH]ccc4c32)CC1 [Example 571, trans N-[4-(6H-1,3,5,6-Tetraaza-as-indacen-1-yl)-cyclohexyl]-isobutyramide]
Ki (TYK2): 101 nM | Ki (JAK2): 21.1 nM | Ki (JAK3): 197 nM

C[C@@H](O)c1nc2cnc3[nH]ccc3c2n1C1CCCCC1 [Example 672, (R)-1-(1-Cyclohexyl-1,6-dihydro-1,2,3,5,6-tetraaza-as-indacen-2-yl)-ethanol-d11]
Ki (TYK2): 3.01 nM | Ki (JAK2): 19.8 nM | Ki (JAK3): 17.2 nM

COC(=O)N[C@H]1CC[C@H](n2cnc3cnc4[nH]ccc4c32)CC1 [Example 311, [4-(6H-1,3,5,6-Tetraaza-as-indacen-1-yl)-cyclohexyl]-carbamic acid methyl ester]
Ki (TYK2): 59.8 nM | Ki (JAK2): 14.1 nM | Ki (JAK3): 91.6 nM

CS(=O)(=O)NCc1nc2cnc3[nH]ccc3c2n1C1CCN(CC(F)F)CC1 [Example 914, N-{1-[1-(2,2-Difluoro-ethyl)-piperidin-4-yl]-1,6-dihydro-1,3,5,6-tetraaza-as-indacen-2-ylmethyl}-methanesulfonamide]
Ki (TYK2): 40.3 nM | Ki (JAK2): 35.4 nM | Ki (JAK3): 60.6 nM

CN1CCC[C@H]1C(=O)N1CCC(n2cnc3cnc4[nH]ccc4c32)CC1 [Example 78, ((S)-1-Methyl-pyrrolidin-2-yl)-[4-(6H-1,3,5,6-tetraaza-as-indacen-1-yl)-piperidin-1-yl]methanone]
Ki (TYK2): 436 nM | Ki (JAK2): 137 nM | Ki (JAK3): 1120 nM

CC1CCCCC1n1c(CNS(C)(=O)=O)nc2cnc3[nH]ccc3c21 (stereo not drawn) [Example 917, N-[1-(2-Methyl-cyclohyl)-1,6-dihydro-1,3,5,6-tetraaza-as-indacen-2-ylmethyl]-methanesulfonamide]
Ki (TYK2): 112 nM | Ki (JAK2): 73.6 nM | Ki (JAK3): 65 nM

CC(C)(C)OC(=O)N[C@H]1CC[C@@H](n2cnc3cnc4[nH]ccc4c32)C1 [Example 136, [(1S,3R)-3-(6H-1,2,3,5,6-Tetraaza-as-indacen-1-yl)-cyclopentyl]-carbamic acid tert-butyl ester]
Ki (TYK2): 147 nM | Ki (JAK2): 18.3 nM | Ki (JAK3): 291 nM

N#CCC(=O)N1CCC(n2cnc3cnc4[nH]ccc4c32)CC1 [Example 33, 3-Oxo-3-[4-(6H-1,3,5,6-tetraaza-as-indacen-1-yl)-piperidin-1-yl]propionitrile]
Ki (TYK2): 143 nM | Ki (JAK2): 35 nM | Ki (JAK3): 162 nM

c1cc2c(ncc3ncn(C4CCC(N5CCOCC5)CC4)c32)[nH]1 (stereo not drawn) [Example 775, 1-(4-Morpholin-4-yl-cyclohexyl)-1,6-dihydro-1,3,5,6-tetraaza-as-indacene]
Ki (TYK2): 843 nM | Ki (JAK2): 238 nM | Ki (JAK3): 910 nM

CC(C)(C)OC(=O)N[C@H]1CC[C@H](n2cnc3cnc4[nH]ccc4c32)CC1 [Example 107, Trans [4-(6H-1,3,5,6-tetraaza-as-indacen-1-yl)-cyclohexyl]-carbamic acid tert-butyl ester]
Ki (TYK2): 216 nM | Ki (JAK2): 20 nM | Ki (JAK3): 132 nM

CC(C)(C)OC(=O)NC1CCC(n2cnc3cnc4[nH]ccc4c32)C1 (racemic) [Example 138, Racemic cis[3-(6H-1,2,3,5,6-Tetraaza-as-indacen-1-yl)-cyclopentyl]-carbamic acid tert-butyl ester]
Ki (TYK2): 222 nM | Ki (JAK2): 27.7 nM | Ki (JAK3): 143 nM

CC(C)CC(=O)N1CCC(n2cnc3cnc4[nH]ccc4c32)CC1 [Example 83, 3-Methyl-1-[4-(6H-1,3.5,6-tetraaza-as-indacen-1-yl)-piperidin-1-yl]-butan-1-one]
Ki (TYK2): 187 nM | Ki (JAK2): 51 nM | Ki (JAK3): 1230 nM
